Reference: US9249131B2, “Modulators of ATP-binding cassette transporters” (Vertex Pharmaceuticals Incorporated, priority 2003, dated 2016)

molecular target: T1, ΔF508-CFTR (Homo sapiens, UniProt P13569, DEL508-508); assay: Assays for ΔF508-CFTR correction and potentiator properties (membrane potential optical and electrophysiological methods); format: cell-based; conditions: CFTR modulation, % Efficacy
T1 construct: expressed in transfected cells; host or cells: NIH3T3 mouse fibroblasts stably expressing ΔF508-CFTR for the optical, whole-cell and single-channel assays; Fisher rat epithelial (FRT) cells for Ussing chamber follow-up
Excerpt: Assays for Detecting and Measuring ΔF508-CFTR Correction and Potentiator Properties of Compounds
A) Membrane Potential Optical Methods for Assaying ΔF508-CFTR Modulation Properties of Compounds
The optical membrane potential assay utilized voltage-sensitive FRET sensors described by Gonzalez and Tsien (See, Gonzales, J. E. and R. Y. Tsien (1995) “Voltage sensing by fluorescence resonance energy transfer in single cells” Biophys J 69 (4): 1272-80, and Gonzalez, J. E. and R. Y. Tsien (1997) “Improved indicators of cell membrane potential that use fluorescence resonance energy transfer” Chem Biol 4 (4): 269-77) in combination with instrumentation for measuring fluorescence changes such as the Voltage/Ion Probe Reader (VIPR) (See, Gonzalez, J. E., K. Oades, et al. (1999) “Cell-based assays and instrumentation for screening ion-channel targets” Drug Discov Today 4 (9): 431-439).
These voltage sensitive assays are based on the change in fluorescence resonant energy transfer (FRET) between the membrane-soluble, voltage-sensitive dye, DiSBAC2 (3), and a fluorescent phospholipid, CC2-DMPE, which is attached to the outer leaflet of the plasma membrane and acts as a FRET donor. Changes in membrane potential (Vm) cause the negatively charged DiSBAC2(3) to redistribute across the plasma membrane and the amount of energy transfer from CC2-DMPE changes accordingly. The changes in fluorescence emission were monitored using VIPR™ II, which is an integrated liquid handler and fluorescent detector designed to conduct cell-based screens in 96- or 384-well microtiter plates.
To identify small molecules that correct the trafficking defect associated with ΔF508-CFTR; a single-addition HTS assay format was developed. The cells were incubated in serum-free medium for 16 hrs at 37° C. in the presence or absence (negative control) of test compound. As a positive control, cells plated in 384-well plates were incubated for 16 hrs at 27° C. to “temperature-correct” ΔF508-CFTR. The cells were subsequently rinsed 3× with Krebs Ringers solution and loaded with the voltage-sensitive dyes. To activate ΔF508-CFTR, […] and the CFTR potentiator, genistein ([…]), were added along with Cl^−-free medium to each well. The addition of Cl^−-free medium promoted Cl^− efflux in response to ΔF508-CFTR activation and the resulting membrane depolarization was optically monitored using the FRET-based voltage-sensor dyes.
To identify potentiators of ΔF508-CFTR, a double-addition HTS assay format was developed. During the first addition, a Cl^−-free medium with or without test compound was added to each well. After 22 sec, a second addition of Cl^−-free medium containing 2-10 µM forskolin was added to activate ΔF508-CFTR. The extracellular Cl^− concentration following both additions was 28 mM, which promoted Cl^− efflux in response to ΔF508-CFTR activation and the resulting membrane depolarization was optically monitored using the FRET-based voltage-sensor dyes.
• Bath Solution #1: (in mM) NaCl 160, KCl 4.5, CaCl2 2, MgCl2 1, HEPES 10, pH 7.4 with NaOH. • Chloride-free bath solution: Chloride salts in Bath Solution #1 are substituted with gluconate salts. • CC2-DMPE: Prepared as a 10 mM stock solution in DMSO and stored at −20° C. • DiSBAC2(3): Prepared as a 10 mM stock in DMSO and stored at −20° C. Cell Culture
NIH3T3 mouse fibroblasts stably expressing ΔF508-CFTR are used for optical measurements of membrane potential. The cells are maintained at 37° C. in 5% CO2 and 90% humidity in Dulbecco's modified Eagle's medium supplemented with 2 mM glutamine, 10% fetal bovine serum, 1×NEAA, β-ME, 1×pen/strep, and 25 mM HEPES in 175 cm^2 culture flasks. For all optical assays, the cells were seeded at 30,000/well in 384-well matrigel-coated plates and cultured for 2 hrs at 37° C. before culturing at 27° C. for 24 hrs. for the potentiator assay. For the correction assays, the cells are cultured at 27° C. or 37° C. with and without compounds for 16-24 hours.

T1 sequence (P13569 with tags, fused parts or gaps DEL508-508): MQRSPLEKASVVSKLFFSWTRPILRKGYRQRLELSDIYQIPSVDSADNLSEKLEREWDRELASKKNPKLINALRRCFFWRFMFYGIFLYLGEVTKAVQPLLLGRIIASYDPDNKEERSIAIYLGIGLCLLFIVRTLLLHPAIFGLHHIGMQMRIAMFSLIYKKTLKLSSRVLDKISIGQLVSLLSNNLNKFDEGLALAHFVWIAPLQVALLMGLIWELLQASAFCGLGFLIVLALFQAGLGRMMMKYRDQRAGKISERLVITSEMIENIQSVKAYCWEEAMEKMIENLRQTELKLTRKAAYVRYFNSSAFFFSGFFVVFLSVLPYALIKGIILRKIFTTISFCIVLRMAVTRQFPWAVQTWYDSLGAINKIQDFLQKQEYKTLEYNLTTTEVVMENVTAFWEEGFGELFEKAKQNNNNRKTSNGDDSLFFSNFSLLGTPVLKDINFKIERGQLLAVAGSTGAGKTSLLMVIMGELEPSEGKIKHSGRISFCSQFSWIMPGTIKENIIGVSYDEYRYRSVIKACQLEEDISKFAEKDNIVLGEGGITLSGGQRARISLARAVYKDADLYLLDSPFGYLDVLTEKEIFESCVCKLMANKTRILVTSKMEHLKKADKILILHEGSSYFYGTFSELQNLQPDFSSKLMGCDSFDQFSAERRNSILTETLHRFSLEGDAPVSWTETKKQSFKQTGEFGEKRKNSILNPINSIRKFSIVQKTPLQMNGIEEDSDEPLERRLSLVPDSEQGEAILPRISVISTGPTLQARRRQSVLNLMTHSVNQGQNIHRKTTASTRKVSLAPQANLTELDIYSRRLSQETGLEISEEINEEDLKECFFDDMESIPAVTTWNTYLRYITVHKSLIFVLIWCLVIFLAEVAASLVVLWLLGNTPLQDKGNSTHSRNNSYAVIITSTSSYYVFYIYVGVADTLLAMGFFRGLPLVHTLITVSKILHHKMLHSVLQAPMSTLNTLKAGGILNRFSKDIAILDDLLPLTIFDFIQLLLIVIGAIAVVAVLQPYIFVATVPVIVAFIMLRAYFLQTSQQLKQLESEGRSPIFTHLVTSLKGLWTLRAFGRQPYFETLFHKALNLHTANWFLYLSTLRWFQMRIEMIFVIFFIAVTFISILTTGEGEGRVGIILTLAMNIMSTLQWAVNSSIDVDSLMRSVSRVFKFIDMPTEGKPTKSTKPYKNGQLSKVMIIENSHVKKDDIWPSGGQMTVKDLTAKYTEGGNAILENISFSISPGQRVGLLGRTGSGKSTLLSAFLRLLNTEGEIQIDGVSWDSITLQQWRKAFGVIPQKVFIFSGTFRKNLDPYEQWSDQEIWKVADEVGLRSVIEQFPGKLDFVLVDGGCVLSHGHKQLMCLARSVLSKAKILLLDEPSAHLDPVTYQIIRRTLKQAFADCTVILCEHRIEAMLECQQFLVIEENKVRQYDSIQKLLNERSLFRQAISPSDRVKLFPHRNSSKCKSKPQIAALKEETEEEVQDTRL

| SMILES | % Activity |
| --- | --- |
| O=C(Nc1ncc(Cc2ccccc2Cl)s1)c1ccccc1 [compound 28] | ++ (“++” means between 25% to 100%) |
| O=C(Cc1ccccc1)Nc1ncc(Cc2ccccc2)s1 [compound 32] | ++ (“++” means between 25% to 100%) |
| O=C(Nc1ncc(Cc2ccc(Cl)cc2)s1)c1ccccc1Cl [compound 33] | ++ (“++” means between 25% to 100%) |
| CC(C)C(C(=O)Nc1nc(-c2ccncc2)cs1)c1ccc(F)cc1F (stereo not shown) [compound 34] | ++ (“++” means between 25% to 100%) |
| CC(C)C(C(=O)Nc1nc(-c2ccncc2)cs1)c1ccccc1 (stereo not shown) [compound 35] | ++ (“++” means between 25% to 100%) |
| N#CCC(=O)Nc1ncc(Cc2cccc(Cl)c2)s1 [compound 36] | ++ (“++” means between 25% to 100%) |
| Cc1cccc2sc(NC(=O)c3ccccc3Cl)nc12 [compound 41] | ++ (“++” means between 25% to 100%) |
| Cc1cccc2sc(NC(=O)c3cccc(Br)c3)nc12 [compound 42] | ++ (“++” means between 25% to 100%) |
| O=C(Nc1nc(-c2ccc(Br)cc2)cs1)c1cccc(Cl)c1 [compound 43] | ++ (“++” means between 25% to 100%) |
| Cc1ccc(C(=O)Nc2nc(-c3ccccc3)c(C)s2)cc1 [compound 44] | +++ (“+++” means >100%) |
| Cc1ccc(-c2nc(NC(=O)c3ccc(C#N)cc3)sc2-c2ccccc2)cc1 [compound 45] | ++ (“++” means between 25% to 100%) |
| O=C(Cc1ccccc1)Nc1nc(-c2cccc3ccccc23)cs1 [compound 46] | ++ (“++” means between 25% to 100%) |
| Cc1ccc(C(=O)Nc2nc(-c3ccc(C)cc3)cs2)cc1 [compound 47] | ++ (“++” means between 25% to 100%) |
| Cc1ccc(-c2csc(NC(=O)c3ccccc3)n2)cc1 [compound 48] | +++ (“+++” means >100%) |
| COc1cccc(C(=O)Nc2nc(-c3ccccc3)cs2)c1 [compound 49] | ++ (“++” means between 25% to 100%) |

More lines, now with the values ahead:

| % Activity | SMILES |
| --- | --- |
| ++ (“++” means between 25% to 100%) | COc1ccc(Cc2cnc(NC(=O)C(c3ccccc3)c3ccccc3)s2)cc1 [compound 27] |
| ++ (“++” means between 25% to 100%) | O=C(Nc1ncc(Cc2ccccc2Cl)s1)C1CCCCC1 [compound 29] |
| +++ (“+++” means >100%) | O=C(Nc1ncc(Cc2cc(Cl)ccc2Cl)s1)C1CCCCC1 [compound 30] |
| ++ (“++” means between 25% to 100%) | O=C(Cc1ccccc1)Nc1ncc(Cc2cccc(Cl)c2)s1 [compound 31] |
| +++ (“+++” means >100%) | O=C(Nc1ncc(Cc2ccccc2Cl)s1)C(c1ccccc1)c1ccccc1 [compound 37] |
| ++ (“++” means between 25% to 100%) | O=C(Nc1ncc(Cc2ccc(Cl)cc2)s1)C(c1ccccc1)c1ccccc1 [compound 38] |
| +++ (“+++” means >100%) | Cc1ccc(C(=O)Nc2nc(-c3ccc(C)cc3)c(-c3ccccc3)s2)cc1 [compound 39] |
| ++ (“++” means between 25% to 100%) | Cc1ccccc1C(=O)Nc1nc2c(C)cccc2s1 [compound 40] |

same assay, conditions: CFTR modulation, tested using the above methods

| SMILES | EC50 [µM] |
| --- | --- |
| O=C(Nc1ncc(Cc2ccccc2Cl)s1)c1ccccc1 [compound 28] | 10 to 25 |
| O=C(Cc1ccccc1)Nc1ncc(Cc2ccccc2)s1 [compound 32] | 10 to 25 |
| O=C(Nc1ncc(Cc2ccc(Cl)cc2)s1)c1ccccc1Cl [compound 33] | 10 to 25 |
| CC(C)C(C(=O)Nc1nc(-c2ccncc2)cs1)c1ccc(F)cc1F (stereo not shown) [compound 34] | 10 to 25 |
| CC(C)C(C(=O)Nc1nc(-c2ccncc2)cs1)c1ccccc1 (stereo not shown) [compound 35] | 10 to 25 |
| N#CCC(=O)Nc1ncc(Cc2cccc(Cl)c2)s1 [compound 36] | 10 to 25 |
| Cc1cccc2sc(NC(=O)c3ccccc3Cl)nc12 [compound 41] | < 10 |
| Cc1cccc2sc(NC(=O)c3cccc(Br)c3)nc12 [compound 42] | < 10 |
| O=C(Nc1nc(-c2ccc(Br)cc2)cs1)c1cccc(Cl)c1 [compound 43] | < 10 |
| Cc1ccc(C(=O)Nc2nc(-c3ccccc3)c(C)s2)cc1 [compound 44] | 10 to 25 |
| Cc1ccc(-c2nc(NC(=O)c3ccc(C#N)cc3)sc2-c2ccccc2)cc1 [compound 45] | 10 to 25 |
| O=C(Cc1ccccc1)Nc1nc(-c2cccc3ccccc23)cs1 [compound 46] | < 10 |
| Cc1ccc(C(=O)Nc2nc(-c3ccc(C)cc3)cs2)cc1 [compound 47] | 10 to 25 |
| Cc1ccc(-c2csc(NC(=O)c3ccccc3)n2)cc1 [compound 48] | < 10 |
| COc1cccc(C(=O)Nc2nc(-c3ccccc3)cs2)c1 [compound 49] | 10 to 25 |

Other lines, results leading:

| EC50 [µM] | SMILES |
| --- | --- |
| < 10 | COc1ccc(Cc2cnc(NC(=O)C(c3ccccc3)c3ccccc3)s2)cc1 [compound 27] |
| < 10 | O=C(Nc1ncc(Cc2ccccc2Cl)s1)C1CCCCC1 [compound 29] |
| < 10 | O=C(Nc1ncc(Cc2cc(Cl)ccc2Cl)s1)C1CCCCC1 [compound 30] |
| < 10 | O=C(Cc1ccccc1)Nc1ncc(Cc2cccc(Cl)c2)s1 [compound 31] |
| < 10 | O=C(Nc1ncc(Cc2ccccc2Cl)s1)C(c1ccccc1)c1ccccc1 [compound 37] |
| < 10 | O=C(Nc1ncc(Cc2ccc(Cl)cc2)s1)C(c1ccccc1)c1ccccc1 [compound 38] |
| < 10 | Cc1ccc(C(=O)Nc2nc(-c3ccc(C)cc3)c(-c3ccccc3)s2)cc1 [compound 39] |
| < 10 | Cc1ccccc1C(=O)Nc1nc2c(C)cccc2s1 [compound 40] |
